According to patent EP4786487A1, “PEPTIDE” (Peptidream Inc, priority 2023, dated 2025):
Like-named read-outs stand apart in the source and are kept apart here. Starred links: 1 amine or outer side, 2 acyl side, 3 side chain; linkers in the order of their positions; H or OH if unused. Positions of bridges follow the written chain, without caps; N, C: chain ends. Non-standard residues stand in square brackets, D forms with d. Residues, ends and D or L forms follow the SMILES beside them. *: point of attachment. X4 = CN(C)C(=O)Cn1cc(-c2ccc(C[C@H](N[*:1])C(=O)[*:2])cc2)cn1; Phe(4-(2-MeO-Ph)) = COc1ccccc1-c1ccc(C[C@H](N)C(=O)O)cc1; X10 = O=C([C@H](Cc1cn(Cc2ccccc2)c2ccccc12)N[*:1])[*:2]; Phe(3-OCH2COOH) = N[C@@H](Cc1cccc(OCC(=O)O)c1)C(=O)O; Trp(1-Ph) = N[C@@H](Cc1cn(-c2ccccc2)c2ccccc12)C(=O)O; NMePhe(3-Ph) = CN[C@@H](Cc1cccc(-c2ccccc2)c1)C(=O)O; X11 = O=C([C@H](Cc1ccc(-c2ccccc2Cl)cc1)N[*:1])[*:2]; Trp(6-OH) = N[C@@H](Cc1c[nH]c2cc(O)ccc12)C(=O)O; Phe(4-COOH) = N[C@@H](Cc1ccc(C(=O)O)cc1)C(=O)O; Piperazinyl(4-CH2COOH) = O=C(O)CN1CCN(*)CC1; Piperidinyl(4-CH2COOH) = O=C(O)CC1CCN(*)CC1; Gly(decyl) = CCCCCCCCCC[C@H](N)C(=O)O; Gly(N(CH2)3COOH) = O=C(O)CCCNCC(=O)O; X1 = CCCCCCC[C@H](N[*:1])C(=O)[*:2]; NMeF = CN[C@@H](Cc1ccccc1)C(=O)O; NMeE = CN[C@@H](CCC(=O)O)C(=O)O; X12 = O=C(O)CCC1CCN(*)CC1; NMeA = CN[C@@H](C)C(=O)O; Sar = CNCC(=O)O

What was measured:
[1] = target: T1, GDF-11 (Homo sapiens, UniProt O95390); test: HepG2 reporter gene assay, Evaluation Procedure (2): 2-concentrations assay, GDF-11 inhibition; format: cell-based
T1 construct: purchased R&D systems 1958-GD-G8/CF
T1 sequence (O95390 299-407): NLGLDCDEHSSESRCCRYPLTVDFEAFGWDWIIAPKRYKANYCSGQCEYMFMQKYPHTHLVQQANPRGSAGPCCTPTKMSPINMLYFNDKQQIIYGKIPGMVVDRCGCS
Procedure, shortened: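 HepG2 cells carrying the transfected pGL3(CAGA)12-luc reporter, a pGL3 vector with luciferase placed downstream of 12 CAGA repeats, were stimulated with GDF-11 at a final 10 ng/mL together with test peptide. Blank wells received no GDF-11 and no peptide. Plates were incubated 20 to 24 hours at 37°C with 5% CO2. Luminescence from One-Glo substrate was read to calculate percent inhibition.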

[2] = target: T2, Myostatin (Homo sapiens, UniProt O14793); test: HepG2 reporter gene assay, Evaluation Procedure (2): 2-concentrations assay, myostatin inhibition; format: cell-based
T2 construct: active myostatin (also called mature myostatin) is a homodimer consisting of two C-terminal growth factor domains; purchased R&D systems 788-G8/CF
T2 sequence (O14793 267-375): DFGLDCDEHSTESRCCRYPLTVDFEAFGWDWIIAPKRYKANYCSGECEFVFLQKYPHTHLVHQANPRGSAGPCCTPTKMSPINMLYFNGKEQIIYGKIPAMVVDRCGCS
Procedure, shortened: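 Myostatin inhibition was measured in a luciferase reporter assay using HepG2 cells transfected with a pGL3 vector containing 12 CAGA repeats upstream of luciferase. After 20 to 24 hours with 10 ng/mL myostatin, cells received One-Glo:PBS (1:1) at 100 µL/well, were shaken for 5 min, and 20 µL/well was moved to 384-well plates and read on an Envision 2104.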

[3] = HepG2, first GDF-11 column of Table 7-3/7-4, GDF-11 10 ng/mL, peptide at the lower of the 2 concentrations, read-out: inhibition rate (GDF-11 inhibition assay)
[4] = HepG2, second GDF-11 column of Table 7-3/7-4, GDF-11 10 ng/mL, peptide at the higher of the 2 concentrations, read-out: inhibition rate (GDF-11 inhibition assay)
[5] = Table 7-3/7-4, myostatin 10 ng/mL, peptide at the higher of the 2 concentrations, HepG2, read-out: inhibition rate (myostatin inhibition assay)
[6] = Table 7-3/7-4, myostatin 10 ng/mL, peptide at the lower of the 2 concentrations, HepG2, read-out: inhibition rate (myostatin inhibition assay)
[7] = HepG2, read-out: inhibition rate (GDF-11 inhibition assay), Table 7-3/7-4, GDF-11 10 ng/mL, peptide at the higher of the 2 concentrations
[8] = HepG2, read-out: inhibition rate (GDF-11 inhibition assay), Table 7-3/7-4, GDF-11 10 ng/mL, peptide at the lower of the 2 concentrations
[9] = HepG2, read-out: inhibition rate (myostatin inhibition assay)

inhibition [1, 3] [%]	inhibition [1, 4] [%]	inhibition at 0.1 µM [2, 5] [%]	inhibition at 0.03 µM [2, 6] [%]	Compound	inhibition [1, 7] [%]	inhibition [1, 8] [%]	inhibition at 0.03 µM [2, 9] [%]	inhibition at 0.1 µM [2, 9] [%]
0	6	100	98	CCCCCCC[C@@H]1NC(=O)[C@H](Cc2ccccc2)N(C)C(=O)[C@H](CCCNC(=N)N)NC(=O)[C@H](Cc2ccc(C(=O)O)cc2)NC(=O)[C@H](Cc2cccc(OCC(=O)O)c2)NC(=O)CN(C)C(=O)[C@H]([C@@H](C)CC)NC(=O)[C@H](Cc2ccccc2)N(C)C(=O)[C@H](Cc2ccc(O)cc2)NC(=O)[C@H](Cc2cn(Cc3ccccc3)c3ccccc23)NC(=O)[C@H](C)NC(=O)[C@H](C)NC(=O)CSC[C@H](C(=O)N2CCN(CC(=O)O)CC2)NC(=O)[C@H](Cc2ccccc2)N(C)C(=O)[C@H](C)N(C)C1=O [Myostatin_99_v312] ({CH2CO}-AA[X10]Y[NMeF]I[Sar][Phe(3-OCH2COOH)][Phe(4-COOH)]R[NMeF][X1][NMeA][NMeF][dC]-{Piperazinyl(4-CH2COOH)}; thioether N-15)	–	–	–	–
12	40	100	100	CCCCCCC[C@@H]1NC(=O)[C@H](Cc2ccccc2)N(C)C(=O)[C@H](CCCNC(=N)N)NC(=O)[C@H](Cc2ccc(C(=O)O)cc2)NC(=O)[C@H](Cc2cccc(OCC(=O)O)c2)NC(=O)CN(C)C(=O)[C@H]([C@@H](C)CC)NC(=O)[C@H](Cc2ccccc2)N(C)C(=O)[C@H](Cc2ccc(O)cc2)NC(=O)[C@H](Cc2c[nH]c3ccccc23)NC(=O)[C@H](C)NC(=O)[C@H](C)NC(=O)CSC[C@H](C(=O)N2CCC(CC(=O)O)CC2)NC(=O)[C@H](Cc2ccccc2)N(C)C(=O)[C@H](C)N(C)C1=O [Myostatin_99_v313] ({CH2CO}-AAWY[NMeF]I[Sar][Phe(3-OCH2COOH)][Phe(4-COOH)]R[NMeF][X1][NMeA][NMeF][dC]-{Piperidinyl(4-CH2COOH)}; thioether N-15)	–	–	–	–
2	51	100	100	CCCCCCC[C@@H]1NC(=O)[C@H](Cc2ccccc2)N(C)C(=O)[C@H](CCCNC(=N)N)NC(=O)[C@H](Cc2ccc(C(=O)O)cc2)NC(=O)[C@H](Cc2cccc(OCC(=O)O)c2)NC(=O)CN(C)C(=O)[C@H]([C@@H](C)CC)NC(=O)[C@H](Cc2ccccc2)N(C)C(=O)[C@H](Cc2ccc(O)cc2)NC(=O)[C@H](Cc2c[nH]c3ccccc23)NC(=O)[C@H](C)NC(=O)[C@H](C)NC(=O)CSC[C@H](C(=O)N2CCC(CCC(=O)O)CC2)NC(=O)[C@H](Cc2ccccc2)N(C)C(=O)[C@H](C)N(C)C1=O [Myostatin_99_v314] ({CH2CO}-AAWY[NMeF]I[Sar][Phe(3-OCH2COOH)][Phe(4-COOH)]R[NMeF][X1][NMeA][NMeF][dC]-X12; thioether N-15)	–	–	–	–
0	19	100	100	CCCCCCC[C@@H]1NC(=O)[C@H](Cc2ccccc2)N(C)C(=O)[C@H](CCCNC(=N)N)NC(=O)[C@H](Cc2ccc(C(=O)O)cc2)NC(=O)[C@H](Cc2cccc(OCC(=O)O)c2)NC(=O)[C@H](C)N(C)C(=O)[C@H]([C@@H](C)CC)NC(=O)[C@H](Cc2ccccc2)N(C)C(=O)[C@H](Cc2ccc(O)cc2)NC(=O)[C@H](Cc2c[nH]c3cc(O)ccc23)NC(=O)[C@H](C)NC(=O)CN(CCCC(=O)O)C(=O)CSC[C@H](C(=O)O)NC(=O)[C@H](Cc2ccccc2)N(C)C(=O)[C@H](C)N(C)C1=O [Myostatin_99_v318] ({CH2CO}-[Gly(N(CH2)3COOH)]A[Trp(6-OH)]Y[NMeF]I[NMeA][Phe(3-OCH2COOH)][Phe(4-COOH)]R[NMeF][X1][NMeA][NMeF][dC]-OH; thioether N-15)	–	–	–	–
–	–	–	–	CCCCCCC[C@@H]1NC(=O)[C@H](Cc2ccccc2)N(C)C(=O)[C@H](CCCNC(=N)N)NC(=O)[C@H](Cc2ccc(C(=O)O)cc2)NC(=O)[C@H](Cc2ccc(-c3ccccc3Cl)cc2)NC(=O)[C@H](C)N(C)C(=O)[C@H]([C@@H](C)CC)NC(=O)[C@H](Cc2ccccc2)N(C)C(=O)[C@H](Cc2ccc(O)cc2)NC(=O)[C@H](Cc2ccc(-c3cnn(CC(=O)N(C)C)c3)cc2)NC(=O)[C@H](C)NC(=O)CN(CCCC(=O)O)C(=O)CSC[C@H](C(=O)O)NC(=O)[C@H](Cc2ccccc2)N(C)C(=O)[C@H](CCC(=O)O)N(C)C1=O [Myostatin_99_v321] ({CH2CO}-[Gly(N(CH2)3COOH)]A[X4]Y[NMeF]I[NMeA][X11][Phe(4-COOH)]R[NMeF][X1][NMeE][NMeF][dC]-OH; thioether N-15)	0	0	58	91
–	–	–	–	CCCCCCC[C@@H]1NC(=O)[C@H](Cc2ccccc2)N(C)C(=O)[C@H](CCCNC(=N)N)NC(=O)[C@H](Cc2ccc(C(=O)O)cc2)NC(=O)[C@H](Cc2ccc(-c3ccccc3OC)cc2)NC(=O)[C@H](C)N(C)C(=O)[C@H]([C@@H](C)CC)NC(=O)[C@H](Cc2ccccc2)N(C)C(=O)[C@H](Cc2ccc(O)cc2)NC(=O)[C@H](Cc2c[nH]c3cc(O)ccc23)NC(=O)[C@H](C)NC(=O)CN(CCCC(=O)O)C(=O)CSC[C@H](C(=O)O)NC(=O)[C@H](Cc2ccccc2)N(C)C(=O)[C@H](CCC(=O)O)N(C)C1=O [Myostatin_99_v323] ({CH2CO}-[Gly(N(CH2)3COOH)]A[Trp(6-OH)]Y[NMeF]I[NMeA][Phe(4-(2-MeO-Ph))][Phe(4-COOH)]R[NMeF][X1][NMeE][NMeF][dC]-OH; thioether N-15)	0	0	97	99
49	86	100	100	CCCCCCC[C@@H]1NC(=O)[C@H](Cc2ccccc2)N(C)C(=O)[C@H](CCCNC(=N)N)NC(=O)[C@H](Cc2ccc(C(=O)O)cc2)NC(=O)[C@H](Cc2ccc(-c3ccccc3Cl)cc2)NC(=O)CN(C)C(=O)[C@H]([C@@H](C)CC)NC(=O)[C@H](Cc2ccccc2)N(C)C(=O)[C@H](Cc2ccc(O)cc2)NC(=O)[C@H](Cc2c[nH]c3cc(O)ccc23)NC(=O)[C@H](C)NC(=O)[C@H](C)NC(=O)CSC[C@H](C(=O)N2CCN(CC(=O)O)CC2)NC(=O)[C@H](Cc2ccccc2)N(C)C(=O)[C@H](CCC(=O)O)N(C)C1=O [Myostatin_99_v325] ({CH2CO}-AA[Trp(6-OH)]Y[NMeF]I[Sar][X11][Phe(4-COOH)]R[NMeF][X1][NMeE][NMeF][dC]-{Piperazinyl(4-CH2COOH)}; thioether N-15)	–	–	–	–
0	0	100	100	CCCCCCC[C@@H]1NC(=O)[C@H](Cc2ccccc2)N(C)C(=O)[C@H](CCCNC(=N)N)NC(=O)[C@H](Cc2ccc(C(=O)O)cc2)NC(=O)[C@H](Cc2cccc(OCC(=O)O)c2)NC(=O)[C@H](C)N(C)C(=O)[C@H]([C@@H](C)CC)NC(=O)[C@H](Cc2ccccc2)N(C)C(=O)[C@H](Cc2ccc(O)cc2)NC(=O)[C@H](Cc2cn(-c3ccccc3)c3ccccc23)NC(=O)[C@H](C)NC(=O)[C@H](C)NC(=O)CSC[C@H](C(=O)N2CCN(CC(=O)O)CC2)NC(=O)[C@H](Cc2cccc(-c3ccccc3)c2)N(C)C(=O)[C@H](CCC(=O)O)N(C)C1=O [Myostatin_99_v330] ({CH2CO}-AA[Trp(1-Ph)]Y[NMeF]I[NMeA][Phe(3-OCH2COOH)][Phe(4-COOH)]R[NMeF][X1][NMeE][NMePhe(3-Ph)][dC]-{Piperazinyl(4-CH2COOH)}; thioether N-15)	–	–	–	–
0	0	100	100	CCCCCCCCCC[C@@H]1NC(=O)[C@H](Cc2ccccc2)N(C)C(=O)[C@H](CCCNC(=N)N)NC(=O)[C@H](Cc2ccc(C(=O)O)cc2)NC(=O)[C@H](Cc2cccc(OCC(=O)O)c2)NC(=O)[C@H]2CCCN2C(=O)[C@H]([C@@H](C)CC)NC(=O)[C@H](Cc2ccccc2)N(C)C(=O)[C@H](Cc2ccc(O)cc2)NC(=O)[C@H](Cc2cn(-c3ccccc3)c3ccccc23)NC(=O)[C@H](C)NC(=O)[C@H](C)NC(=O)CSC[C@H](C(=O)N2CCN(CC(=O)O)CC2)NC(=O)[C@H](Cc2cccc(-c3ccccc3)c2)N(C)C(=O)[C@H](CCC(=O)O)N(C)C1=O [Myostatin_99_v331] ({CH2CO}-AA[Trp(1-Ph)]Y[NMeF]I[dP][Phe(3-OCH2COOH)][Phe(4-COOH)]R[NMeF][Gly(decyl)][NMeE][NMePhe(3-Ph)][dC]-{Piperazinyl(4-CH2COOH)}; thioether N-15)	–	–	–	–
